Reference: ChEMBL document CHEMBL4602643, “Anti-inflammatory activities of isopimara-8(14),-15-diene diterpenoids and mode of action of kaempulchraols P and Q from Kaempferia pulchra rhizomes” (Bioorg Med Chem Lett, 2020)
The source made the active and inactive calls. The rule behind the calls is not given here.

Key:
[1] = system: RAW264.7; test: Anti-inflammatory activity in mouse RAW264.7 cells assessed as inhibition of LPS-induced NO production at 50 uM relative to control; type: functional
[2] = system: RAW264.7; test: Anti-inflammatory activity in mouse RAW264.7 cells assessed as inhibition of LPS-induced NO production at 10 uM relative to control; type: functional
[3] = system: RAW264.7; test: Anti-inflammatory activity in mouse RAW264.7 cells assessed as inhibition of LPS-induced NO production at 5 uM relative to control; type: functional
[4] = system: RAW264.7; test: Anti-inflammatory activity in mouse RAW264.7 cells assessed as inhibition of LPS-induced NO production at 100 uM relative to control; type: functional
[5] = system: RAW264.7; test: Anti-inflammatory activity in mouse RAW264.7 cells assessed as inhibition of LPS-induced NO production; type: functional, cell-based
[6] = Cytotoxicity against mouse RAW264.7 cells assessed as cell survival at 5 uM; type: cell-based; settings: read-out: Activity
[7] = Cytotoxicity against mouse RAW264.7 cells assessed as cell survival at 10 uM; type: cell-based; settings: read-out: Activity
[8] = Cytotoxicity against mouse RAW264.7 cells assessed as cell survival at 50 uM; type: cell-based; settings: read-out: Activity
[9] = Cytotoxicity against mouse RAW264.7 cells assessed as cell survival at 100 uM; type: cell-based; settings: read-out: Activity
[10] = system: RAW264.7; test: Inhibition of NF-kappaB activation in mouse RAW264.7 cells expressing luciferase gene at 5 to 25 uM by luciferase reporter gene assay; type: cell-based
[11] = system: RAW264.7; test: Cytotoxicity against mouse RAW264.7 cells expressing luciferase reporter gene assessed as cell survival at 5 to 25 uM; type: cell-based; settings: raw264.7, 25 µM
[12] = system: RAW264.7; test: Inhibition of LPS-induced NF-kappaB activation in mouse RAW264.7 cells expressing luciferase gene at 5 to 25 uM by luciferase reporter gene assay; type: cell-based
[13] = system: RAW264.7; test: Inhibition of LPS-induced IL-6 production in mouse RAW264.7 cells at 25 uM by ELISA; type: functional, cell-based
[14] = system: RAW264.7; test: Antiinflammatory activity in mouse RAW264.7 cells assessed as inhibition of LPS-induced COX2 expression at 25 uM incubated for 24 hrs by Western blot analysis; type: functional, cell-based

- IC50 [5]: 36.1 µM
SMILES: C=C[C@]1(C)C=C2C[C@@H](O)[C@H]3C(C)(C)CC[C@H](OC(C)=O)[C@]3(C)[C@H]2CC1
- inhibition at 50 µM [1]: 71.6%
- inhibition at 10 µM [2]: 9.55%
- inhibition at 5 µM [3]: 15.2%
- inhibition at 100 µM [4]: 81.8%
- viability at 5 µM [6]: 106%
- viability at 10 µM [7]: 111%
- viability at 50 µM [8]: 60.3%
- viability at 100 µM [9]: 3.39%
- inhibition [10]: Active
- Activity [11]: Non-Toxic
- inhibition [12]: Active
- inhibition [13]: Active
- inhibition [14]: Active
